Data taken from patent US20250297220A1, “IMMUNE-ACTIVATING COMPLEXES” (Dynamic Cell Therapies, Inc., priority 2022, published 2025).

Tests used:
[1] = Molar absorptivities at 280 nm and 493 nm; assay type: physicochemical
Experimental: UV-vis absorption profiles were obtained for compound 7-functionalized antibodies, unfunctionalized antibodies, and free compound 7. FIG. 47 provides the results of these analyses. Molar absorptivities (8) were determined for the anti-BCMA antibody at 280 nm (primarily corresponding tyrosine and tryptophan absorbances from the anti-BCMA antibody) and at 493 nm for maleimide fluorescein and 5 (6)-carboxy fluorescein (primarily corresponding to the HOMO to LUMO transition within the fluorescein x-system), and are summarized in Table 18. As the unfunctionalized antibody minimally absorbed around 493 nm, absorbance in this region is quantitative for fluorescein concentration.

[2] = test system: engineered cytokine receptor switches (fluorescein-binding receptor domains, IL-7 receptor-a intracellular signaling domains); experiment: T-cell activation, transduction, expansion and differentiation; memory phenotype quantification; assay type: cell-based; conditions: after 5 days in multi-well plates; non-fluorescein contacted cells about 30%
Text: This example covers activation, differentiation, and expansion of immune cells with engineered cytokine receptor switches. The engineered cytokine receptor switches included fluorescein-binding receptor domains and IL-7 receptor-a intracellular signaling domains. The cells were activated with CD3 and CD28 antibody-coated beads, followed by small molecule activators for the engineered cytokine switches to promote differentiation to memory phenotypes. The proportion of stem-cell memory, central memory, and effector memory cells were measured following differentiation.
Activation, transfection, expansion, and differentiation were performed according to the timeline in FIG. 28A. The cells were maintained in media with 20 units/ml IL2 throughout the incubation. The cells were first contacted with CD3/CD28 activating beads at a ratio of 1:1 (cells to beads). Following three days of activation and expansion, the cells were transfected with a gamma retroviral vector encoding the engineered cytokine receptor switch with fluorescein binding affinity and mCherry for fluorescence detection. The cells were then transferred to a multi-well plate. […]
Following 5 total days of incubation in the multi-well plates, the cells were analyzed for (1) stem-cell memory, (2) central memory, (3) effector memory, and (4) terminally differentiated effector memory re-expressing CD45RA phenotype. […]

ε280 nm ([1]; molar absorptivity at 280 nm) [M⁻¹ cm⁻¹] | ε493nm ([1]; molar absorptivity at 493 nm) [M⁻¹ cm⁻¹] | SMILES | proportion of central memory cells [2]
7968 | 43908 | O=C1OC2(c3ccc(O)cc3Oc3cc(O)ccc32)c2ccc(N3C(=O)C=CC3=O)cc21 [Fluorescein-Maleimide] | –
– | – | O=C1OC2(c3ccc(O)cc3Oc3cc(O)ccc32)c2ccccc21 [fluorescein] | about 50%
